Source: patent US6359005B1, “Method for the treatment of mania and bipolar disorder” (Warner-Lambert Company, priority 1998, dated 2002)

How the values were obtained:
[1] = tested on: healthy subjects and patients suffering from anxiety; assay: Studies of healthy subjects and patients suffering from anxiety; assay type: in vivo, human
Source text: This is a novel use for pregabalin which would not be obvious to a medical practitioner of ordinary skill.
This effect will be beneficial in acute mania and will also lead to reducing the risk for onset of a new episode of mania in a predisposed individual. Thus, the prophylactic use of pregabalin for bipolar disorder is also taught.

[2] = Toxicity / tolerability of the compound; details: in vivo
[3] = Metabolism in the body; details: in vivo

Compound: CC(C)C[C@H](CN)CC(=O)O [Pregabalin, (S)-3-(aminomethyl)-5-methylhexanoic acid]
- Effects noted in subjects (sedation, calming) ([1]; healthy subjects and patients suffering from anxiety): sedative and calming effects
- Effect on sleep ([1]; human, in vivo): enhance sleep
- Tolerability [2]: well-tolerated
- Metabolism in the body [3]: not metabolized in the body
